Results: ChEMBL document CHEMBL4229379, “Synthesis and structure-activity relationship of novel bisindole amidines active against MDR Gram-positive and Gram-negative bacteria” (Eur J Med Chem, 2018)
Converted amounts (≈) assume the structure as drawn.

How the values were obtained:
Staphylococcus aureus [1] = test: Antibacterial activity against methicillin-resistant Staphylococcus aureus 12-33 after 18 hrs by CLSI broth microdilution method; assay type: functional; conditions: 12-33, 18 h
[2] = tested on: Stenotrophomonas maltophilia; test: Antibacterial activity against Stenotrophomonas maltophilia ATCC 13636 after 18 hrs by CLSI broth microdilution method; assay type: functional; conditions: ATCC 13636, 18 h
Klebsiella pneumoniae [3] = test: Antibacterial activity against extended-spectrum beta-lactamase deficient Klebsiella pneumoniae 7 after 18 hrs by CLSI broth microdilution method; assay type: functional; conditions: Klebsiella pneumoniae, 7, 18 h
Escherichia coli [4] = test: Antibacterial activity against extended-spectrum beta-lactamase deficient Escherichia coli ATCC 25922 after 18 hrs by CLSI broth microdilution method; assay type: functional; conditions: ATCC 25922, 18 h
Staphylococcus aureus [5] = test: Antibacterial activity against methicillin-sensitive Staphylococcus aureus 15 after 18 hrs by CLSI broth microdilution method; assay type: functional; conditions: Staphylococcus aureus, 15, 18 h
Escherichia coli [6] = test: Antibacterial activity against extended-spectrum beta-lactamase harboring Escherichia coli 12-15 after 18 hrs by CLSI broth microdilution method; assay type: functional; conditions: 12-15, 18 h
Staphylococcus aureus [7] = test: Antibacterial activity against methicillin-sensitive Staphylococcus aureus ATCC 29213 after 18 hrs by CLSI broth microdilution method; assay type: functional; conditions: ATCC 29213, 18 h
Escherichia coli [8] = test: Antibacterial activity against extended-spectrum beta-lactamase deficient Escherichia coli 1515 after 18 hrs by CLSI broth microdilution method; assay type: functional; conditions: Escherichia coli, 1515, 18 h
Proteus vulgaris = test: Antibacterial activity against Proteus vulgaris ATCC 29905 after 18 hrs by CLSI broth microdilution method; assay type: functional; conditions: ATCC 29905, 18 h
Klebsiella pneumoniae [9] = test: Antibacterial activity against extended-spectrum beta-lactamase deficient Klebsiella pneumoniae 12-4 after 18 hrs by CLSI broth microdilution method; assay type: functional; conditions: 12-4, 18 h
Pseudomonas aeruginosa [10] = test: Antibacterial activity against Pseudomonas aeruginosa PAO1 after 18 hrs by CLSI broth microdilution method; assay type: functional; conditions: PAO1, 18 h
Enterobacter cloacae = test: Antibacterial activity against Enterobacter cloacae ATCC 43560 after 18 hrs by CLSI broth microdilution method; assay type: functional; conditions: ATCC 43560, 18 h
Escherichia coli [11] = test: Antibacterial activity against extended-spectrum beta-lactamase deficient Escherichia coli 12-14 after 18 hrs by CLSI broth microdilution method; assay type: functional; conditions: 12-14, 18 h
Pseudomonas aeruginosa [12] = test: Antibacterial activity against Pseudomonas aeruginosa ATCC 27853 after 18 hrs by CLSI broth microdilution method; assay type: functional; conditions: ATCC 27853, 18 h
[13] = tested on: Staphylococcus epidermidis; test: Antibacterial activity against methicillin-resistant Staphylococcus epidermidis 12-8 after 18 hrs by CLSI broth microdilution method; assay type: functional; conditions: 12-8, 18 h
Enterococcus faecalis [14] = test: Antibacterial activity against vancomycin-sensitive Enterococcus faecalis ATCC 29212 after 18 hrs by CLSI broth microdilution method; assay type: functional; conditions: ATCC 29212, 18 h
[15] = tested on: Acinetobacter calcoaceticus; test: Antibacterial activity against Acinetobacter calcoaceticus ATCC 19606 after 18 hrs by CLSI broth microdilution method; assay type: functional; conditions: ATCC 19606, 18 h
[16] = tested on: Staphylococcus epidermidis; test: Antibacterial activity against methicillin-sensitive Staphylococcus epidermidis 12-6 after 18 hrs by CLSI broth microdilution method; assay type: functional; conditions: 12-6, 18 h
Enterococcus faecium [17] = test: Antibacterial activity against vancomycin-sensitive Enterococcus faecium 12-3 after 18 hrs by CLSI broth microdilution method; assay type: functional; conditions: 12-3, 18 h
Klebsiella pneumoniae [18] = test: Antibacterial activity against extended-spectrum beta-lactamase harboring Klebsiella pneumoniae ATCC 700603 after 18 hrs by CLSI broth microdilution method; assay type: functional; conditions: Klebsiella pneumoniae, 700603, 18 h
Klebsiella pneumoniae [19] = test: Antibacterial activity against extended-spectrum beta-lactamase harboring Klebsiella pneumoniae 12-8 after 18 hrs by CLSI broth microdilution method; assay type: functional; conditions: 12-8, 18 h
Staphylococcus aureus [20] = test: Antibacterial activity against methicillin-sensitive Staphylococcus aureus 12-28 after 18 hrs by CLSI broth microdilution method; assay type: functional; conditions: 12-28, 18 h
Enterococcus faecalis [21] = test: Antibacterial activity against vancomycin-sensitive Enterococcus faecalis 12-5 after 18 hrs by CLSI broth microdilution method; assay type: functional; conditions: 12-5, 18 h
Enterococcus faecium [22] = test: Antibacterial activity against vancomycin-resistant Enterococcus faecium 12-1 after 18 hrs by CLSI broth microdilution method; assay type: functional; conditions: 12-1, 18 h
Staphylococcus aureus [23] = test: Antibacterial activity against methicillin-resistant Staphylococcus aureus ATCC 33591 after 18 hrs by CLSI broth microdilution method; assay type: functional; conditions: ATCC 33591, 18 h
Klebsiella aerogenes = test: Antibacterial activity against Enterobacter aerogenes ATCC 13048 after 18 hrs by CLSI broth microdilution method; assay type: functional; conditions: ATCC 13048, 18 h
[24] = Cytotoxicity against HEK293T cells assessed as reduction in cell viability after 48 hrs by MTS assay; assay type: cell-based, HEK-293T; conditions: human
Enterococcus faecalis [25] = test: Antibacterial activity against vancomycin-resistant Enterococcus faecalis ATCC 51299 after 18 hrs by CLSI broth microdilution method; assay type: functional; conditions: ATCC 51299, 18 h
Enterococcus faecalis [26] = test: Antibacterial activity against vancomycin-resistant Enterococcus faecalis 09-9 after 18 hrs by CLSI broth microdilution method; assay type: functional; conditions: 09-9, 18 h
Pseudomonas aeruginosa [27] = test: Antibacterial activity against Pseudomonas aeruginosa 12-16 after 18 hrs by CLSI broth microdilution method; assay type: functional; conditions: 12-16, 18 h
Proteus mirabilis = test: Antibacterial activity against Proteus mirabilis 12-6 after 18 hrs by CLSI broth microdilution method; assay type: functional; conditions: 12-6, 18 h
Serratia marcescens = test: Antibacterial activity against Serratia marcescens ATCC 21074 after 18 hrs by CLSI broth microdilution method; assay type: functional; conditions: ATCC 21074, 18 h
Klebsiella pneumoniae [28] = test: Antibacterial activity against new delhi metallo-beta-lactamase-1 harboring Klebsiella pneumoniae ATCC BAA-2146 after 18 hrs by CLSI broth microdilution method; assay type: functional; conditions: ATCC BAA-2146, 18 h
Citrobacter freundii = test: Antibacterial activity against Citrobacter freundii ATCC 43864 after 18 hrs by CLSI broth microdilution method; assay type: functional; conditions: ATCC 43864, 18 h
Enterococcus faecium [29] = test: Antibacterial activity against vancomycin-resistant Enterococcus faecium ATCC 700221 after 18 hrs by CLSI broth microdilution method; assay type: functional; conditions: ATCC 700221, 18 h
[30] = tested on: Staphylococcus epidermidis; test: Antibacterial activity against methicillin-sensitive Staphylococcus epidermidis ATCC 12228 after 18 hrs by CLSI broth microdilution method; assay type: functional; conditions: ATCC 12228, 18 h
Providencia rettgeri = test: Antibacterial activity against Providencia rettgeri ATCC 31052 after 18 hrs by CLSI broth microdilution method; assay type: functional; conditions: ATCC 31052, 18 h

Compound	MIC (Staphylococcus aureus [1]) [µg/mL]	MIC [2] [µg/mL]	MIC (Klebsiella pneumoniae [3]) [µg/mL]	MIC (Escherichia coli [4]) [µg/mL]	MIC (Staphylococcus aureus [5]) [µg/mL]	MIC (Escherichia coli [6]) [µg/mL]	MIC (Staphylococcus aureus [7]) [µg/mL]	MIC (Escherichia coli [8]) [µg/mL]	MIC (Proteus vulgaris) [µg/mL]	MIC (Klebsiella pneumoniae [9]) [µg/mL]	MIC (Pseudomonas aeruginosa [10]) [µg/mL]	MIC (Enterobacter cloacae) [µg/mL]	MIC (Escherichia coli [11]) [µg/mL]	MIC (Pseudomonas aeruginosa [12]) [µg/mL]	MIC [13] [µg/mL]	MIC (Enterococcus faecalis [14]) [µg/mL]	MIC [15] [µg/mL]	MIC [16] [µg/mL]	MIC (Enterococcus faecium [17]) [µg/mL]	MIC (Klebsiella pneumoniae [18]) [µg/mL]	other results
CN1CCC2(CC1)CCN(C(=N)c1ccc3cc(-c4ccc(-c5cc6ccc(C(=N)N7CCC8(CCN(C)CC8)C7)cc6[nH]5)cc4)[nH]c3c1)C2	8 (≈ 12 µM)	> 128	8 (≈ 12 µM)	8 (≈ 12 µM)	8 (≈ 12 µM)	16 (≈ 24 µM)	8 (≈ 12 µM)	8 (≈ 12 µM)	128 (≈ 192 µM)	16 (≈ 24 µM)	64 (≈ 96 µM)	> 128	16 (≈ 24 µM)	32 (≈ 48 µM)	4 (≈ 6 µM)	16 (≈ 24 µM)	> 128	8 (≈ 12 µM)	16 (≈ 24 µM)	64 (≈ 96 µM)	MIC (Klebsiella pneumoniae [19]): 16 µg/mL (≈ 24 µM); MIC (Staphylococcus aureus [20]): 16 µg/mL (≈ 24 µM); MIC (Enterococcus faecalis [21]): 128 µg/mL (≈ 192 µM); MIC (Enterococcus faecium [22]): 16 µg/mL (≈ 24 µM); MIC (Staphylococcus aureus [23]): 8 µg/mL (≈ 12 µM); MIC (Klebsiella aerogenes): 16 µg/mL (≈ 24 µM); CC50 at 48 h [24]: 28.4 µg/mL (≈ 42.7 µM); MIC (Enterococcus faecalis [25]): 16 µg/mL (≈ 24 µM); MIC (Enterococcus faecalis [26]): 16 µg/mL (≈ 24 µM); MIC (Pseudomonas aeruginosa [27]): 128 µg/mL (≈ 192 µM); MIC (Proteus mirabilis): > 128 µg/mL; MIC (Serratia marcescens): > 128 µg/mL; MIC (Klebsiella pneumoniae [28]): 16 µg/mL (≈ 24 µM); MIC (Citrobacter freundii): 16 µg/mL (≈ 24 µM); MIC (Enterococcus faecium [29]): 16 µg/mL (≈ 24 µM); MIC [30]: 2 µg/mL (≈ 3 µM); MIC (Providencia rettgeri): > 128 µg/mL
COCCNC(=N)c1ccc2cc(-c3cncc(-c4cc5ccc(C(=N)NCCOC)cc5[nH]4)c3)[nH]c2c1	> 64	> 64	> 64	> 64	> 64	> 64	> 64	> 64	> 64	> 64	> 64	> 64	> 64	> 64	> 64	> 64	> 64	64 (≈ 126 µM)	> 64	> 64	MIC (Klebsiella pneumoniae [19]): > 64 µg/mL; MIC (Staphylococcus aureus [20]): > 64 µg/mL; MIC (Enterococcus faecalis [21]): > 64 µg/mL; MIC (Enterococcus faecium [22]): > 64 µg/mL; MIC (Staphylococcus aureus [23]): > 64 µg/mL; MIC (Klebsiella aerogenes): > 64 µg/mL; CC50 at 48 h [24]: 28 µg/mL (≈ 54.9 µM); MIC (Enterococcus faecalis [25]): > 64 µg/mL; MIC (Enterococcus faecalis [26]): > 64 µg/mL; MIC (Pseudomonas aeruginosa [27]): > 64 µg/mL; MIC (Proteus mirabilis): > 64 µg/mL; MIC (Serratia marcescens): > 64 µg/mL; MIC (Klebsiella pneumoniae [28]): > 64 µg/mL; MIC (Citrobacter freundii): > 64 µg/mL; MIC (Enterococcus faecium [29]): > 64 µg/mL; MIC [30]: 64 µg/mL (≈ 126 µM); MIC (Providencia rettgeri): > 64 µg/mL
